Test results: PubChem BioAssay (NCI)
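Cultured in 96-well plates, cells were exposed to test compound for 48 hours across five concentrations. The concentration for full growth arrest is given as TGI.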

Columns and labels:
Assay in all cases: growth of human tumour cells (NCI), 48 h
[1] = system: NCI/ADR-RES ovarian
[2] = system: HCC-2998 colon
[3] = system: CCRF-CEM leukemia
[4] = system: MCF7 breast
[5] = system: ACHN renal
[6] = system: SNB-19 CNS
[7] = system: MDA-MB-435
[8] = system: PC-3 prostate
[9] = system: SK-MEL-28 melanoma
[10] = system: A549 NSCLC
[11] = system: HCT-15 colon
[12] = system: HT29 colon
[13] = system: HL-60(TB) leukemia
[14] = system: M14 melanoma
[15] = system: HOP-92 NSCLC
[16] = system: IGROV1 ovarian
[17] = system: SNB-75 CNS
[18] = system: BT-549 breast
[19] = system: MDA-MB-231 breast
[20] = system: CAKI-1 renal
[21] = system: SF-295 CNS
[22] = system: 786-0 renal
[23] = system: SF-539 CNS
[24] = system: NCI-H522 lung
[25] = system: UACC-62 melanoma
[26] = system: OVCAR-3 ovarian
[27] = system: A498 renal
[28] = system: SK-MEL-5 melanoma
[29] = system: NCI-H460 lung
[30] = system: MOLT-4 leukemia
[31] = system: KM12 colon
[32] = system: RPMI-8226 leukemia
[33] = system: SF-268 CNS
[34] = system: SK-MEL-2 melanoma
[35] = system: OVCAR-5 ovarian
[36] = system: SW-620 colon
[37] = system: MALME-3M melanoma
[38] = system: NCI-H226 lung
[39] = system: OVCAR-4 ovarian
[40] = system: TK-10 renal
[41] = system: OVCAR-8 ovarian
[42] = system: NCI-H23 lung
[43] = system: MDA-N
[44] = system: LOX IMVI melanoma
[45] = system: SK-OV-3 ovarian
[46] = system: DU-145 prostate
[47] = system: HS 578T breast
[48] = system: COLO 205 colon
[49] = system: EKVX NSCLC
[50] = system: K-562 leukemia
[51] = system: UO-31 renal
[52] = system: SN12C renal
[53] = system: U251 CNS
[54] = system: T-47D breast
[55] = system: UACC-257 melanoma
[56] = system: HCT-116 colon
[57] = system: HOP-62 NSCLC
[58] = system: RXF 393 renal

`O=C1C(OC(=O)c2ccccc2)=C(c2ccc(O)cc2)C(=O)C(OC(=O)c2ccccc2)=C1c1ccc(O)cc1` showed a TGI [1] of over 100 µM, a TGI [2] of over 100 µM and a TGI [3] of over 100 µM. For the same compound, the TGI [4] was over 100 µM, the TGI [5] was over 100 µM and the TGI [6] was over 100 µM. It also gave a TGI [7] of over 100 µM, a TGI [8] of over 100 µM and a TGI [9] of over 100 µM. The TGI [10] was over 100 µM, the TGI [11] was over 100 µM and the TGI [12] was over 100 µM. It also gave a TGI [13] of over 100 µM, a TGI [14] of over 100 µM and a TGI [15] of over 100 µM. The TGI [16] was over 100 µM, the TGI [17] was over 100 µM and the TGI [18] was over 100 µM. It also gave a TGI [19] of over 100 µM, a TGI [20] of over 100 µM and a TGI [21] of over 100 µM. The TGI [22] was over 100 µM, the TGI [23] was over 100 µM and the TGI [24] was over 100 µM. The TGI [25] was over 100 µM, the TGI [26] was over 100 µM and the TGI [27] was over 100 µM. For the same compound, the TGI [28] was over 100 µM, the TGI [29] was over 100 µM and the TGI [30] was over 100 µM. It also gave a TGI [31] of over 100 µM, a TGI [32] of over 100 µM and a TGI [33] of over 100 µM. It also gave a TGI [34] of over 100 µM, a TGI [35] of over 100 µM and a TGI [36] of over 100 µM. For the same compound, the TGI [37] was over 100 µM, the TGI [38] was over 100 µM and the TGI [39] was over 100 µM. It also gave a TGI [40] of over 100 µM, a TGI [41] of over 100 µM and a TGI [42] of over 100 µM. It also gave a TGI [43] of over 100 µM, a TGI [44] of over 100 µM and a TGI [45] of over 100 µM. The TGI [46] was over 100 µM, the TGI [47] was over 100 µM and the TGI [48] was over 100 µM. It also gave a TGI [49] of over 100 µM, a TGI [50] of over 100 µM and a TGI [51] of over 100 µM. The TGI [52] was over 100 µM, the TGI [53] was over 100 µM and the TGI [54] was over 100 µM. The TGI [55] was over 100 µM and the TGI [56] was over 100 µM.
`CN1C/C(=C\c2cccs2)C(=O)/C(=C/c2cccs2)C1` was tested, and the TGI [1] was 94.5 µM, the TGI [2] was 45.5 µM and the TGI [3] was 26.7 µM. For the same compound, the TGI [4] was over 100 µM, the TGI [5] was 66.1 µM and the TGI [6] was over 100 µM. It also gave a TGI [7] of 34.1 µM, a TGI [8] of over 100 µM and a TGI [9] of over 100 µM. The TGI [10] was over 100 µM, the TGI [11] was over 100 µM and the TGI [12] was 50.5 µM. For the same compound, the TGI [14] was 82.9 µM, the TGI [15] was 67.3 µM and the TGI [16] was 92.2 µM. It also gave a TGI [18] of 72.1 µM, a TGI [19] of 48.3 µM and a TGI [20] of over 100 µM. The TGI [21] was over 100 µM, the TGI [22] was 49.2 µM and the TGI [24] was over 100 µM. It also gave a TGI [25] of over 100 µM, a TGI [26] of over 100 µM and a TGI [27] of 71.2 µM. The TGI [28] was over 100 µM, the TGI [29] was over 100 µM and the TGI [30] was 47.2 µM. It also gave a TGI [31] of 83.3 µM, a TGI [32] of 32.3 µM and a TGI [33] of over 100 µM. The TGI [34] was 48.9 µM, the TGI [35] was 66.8 µM and the TGI [36] was over 100 µM. For the same compound, the TGI [37] was over 100 µM, the TGI [57] was over 100 µM and the TGI [38] was over 100 µM. For the same compound, the TGI [39] was 55.4 µM, the TGI [40] was over 100 µM and the TGI [41] was 74 µM. It also gave a TGI [42] of over 100 µM, a TGI [43] of 61.7 µM and a TGI [44] of 41 µM. It also gave a TGI [45] of over 100 µM, a TGI [46] of over 100 µM and a TGI [47] of over 100 µM. It also gave a TGI [48] of 91.7 µM, a TGI [49] of 75.8 µM and a TGI [58] of 54.8 µM. For the same compound, the TGI [50] was over 100 µM, the TGI [51] was 45 µM and the TGI [52] was 76.5 µM. The TGI [53] was 30.7 µM, the TGI [54] was 92.6 µM and the TGI [55] was over 100 µM. It also gave a TGI [56] of 34.4 µM.
`C=C(Cl)CN1c2ccccc2C=Cc2ccccc21` showed a TGI [1] of over 100 µM, a TGI [2] of 33.7 µM and a TGI [4] of 50.4 µM. The TGI [5] was 35.4 µM, the TGI [6] was over 100 µM and the TGI [7] was 44.7 µM. The TGI [8] was over 100 µM, the TGI [10] was over 100 µM and the TGI [11] was over 100 µM. The TGI [12] was 56.4 µM, the TGI [14] was 57.8 µM and the TGI [15] was 61.2 µM. For the same compound, the TGI [16] was over 100 µM, the TGI [17] was 61.9 µM and the TGI [18] was over 100 µM. For the same compound, the TGI [19] was 35.7 µM, the TGI [20] was 52.9 µM and the TGI [21] was 35.2 µM. For the same compound, the TGI [22] was over 100 µM, the TGI [23] was 75.2 µM and the TGI [24] was 82 µM. It also gave a TGI [25] of 44.2 µM, a TGI [26] of 33.9 µM and a TGI [27] of 66.9 µM. It also gave a TGI [28] of 20.3 µM, a TGI [29] of 16.2 µM and a TGI [31] of 48.9 µM. For the same compound, the TGI [33] was over 100 µM, the TGI [34] was 40.6 µM and the TGI [35] was 50.8 µM. For the same compound, the TGI [37] was 77.9 µM, the TGI [57] was 89.9 µM and the TGI [38] was 70.2 µM. The TGI [39] was 97.9 µM, the TGI [40] was over 100 µM and the TGI [41] was over 100 µM. The TGI [42] was over 100 µM, the TGI [43] was 64.1 µM and the TGI [44] was 52.4 µM. For the same compound, the TGI [45] was over 100 µM, the TGI [46] was over 100 µM and the TGI [47] was over 100 µM. For the same compound, the TGI [48] was 30.4 µM, the TGI [49] was 49.9 µM and the TGI [58] was 33 µM. It also gave a TGI [51] of 82 µM, a TGI [52] of 57.3 µM and a TGI [53] of 30.9 µM. It also gave a TGI [54] of 65.2 µM, a TGI [55] of 49.8 µM and a TGI [56] of 29 µM.
`O=C(NNc1nc(-c2ccccc2)cs1)Nc1ccccc1` was tested, and the TGI [1] was 45.8 µM, the TGI [2] was 70.6 µM and the TGI [3] was over 100 µM. For the same compound, the TGI [4] was 62.8 µM, the TGI [5] was over 100 µM and the TGI [6] was over 100 µM. The TGI [7] was 65.8 µM, the TGI [8] was 39.1 µM and the TGI [9] was 85.6 µM. For the same compound, the TGI [10] was 48 µM, the TGI [11] was 74.4 µM and the TGI [12] was 76.2 µM. The TGI [14] was over 100 µM, the TGI [16] was over 100 µM and the TGI [17] was 69.3 µM. For the same compound, the TGI [18] was 60.9 µM, the TGI [19] was 54.4 µM and the TGI [20] was over 100 µM. It also gave a TGI [21] of 83.6 µM, a TGI [22] of 85 µM and a TGI [25] of 40.2 µM. The TGI [26] was 50.2 µM, the TGI [28] was 38.2 µM and the TGI [29] was 50.6 µM. It also gave a TGI [30] of over 100 µM, a TGI [31] of over 100 µM and a TGI [32] of 44.2 µM. It also gave a TGI [33] of 80.9 µM, a TGI [34] of 44.6 µM and a TGI [35] of over 100 µM. It also gave a TGI [36] of over 100 µM, a TGI [37] of over 100 µM and a TGI [57] of 56.8 µM. The TGI [38] was 46.5 µM, the TGI [39] was 88.5 µM and the TGI [40] was 48.6 µM. It also gave a TGI [41] of 46.8 µM, a TGI [42] of 41.2 µM and a TGI [43] of 65.8 µM. It also gave a TGI [45] of 52.2 µM, a TGI [46] of 89.1 µM and a TGI [47] of 74.3 µM. The TGI [48] was 56.4 µM, the TGI [49] was over 100 µM and the TGI [58] was 36.8 µM. For the same compound, the TGI [50] was over 100 µM, the TGI [51] was 75.2 µM and the TGI [52] was 97.8 µM. It also gave a TGI [53] of 58.1 µM, a TGI [54] of 66.8 µM and a TGI [55] of 59.3 µM. It also gave a TGI [56] of 58.5 µM.
